Results: article PMC11094307, “Marine-derived EGFR inhibitors: novel compounds targeting breast cancer growth and drug resistance” (Frontiers in Pharmacology, 2024)

Experiments:
[1] = molecular target: T1, EGFR (Homo sapiens, UniProt P00533); test: CETSA in MCF-7 cells; format: cell-based; conditions: for CETSA WB Normalized (Figure 3F): control 0 µM 0.614197892
T1 construct: endogenous in cells; host or cells: MCF-7
Procedure: In the CETSA, MCF-7 cells were treated with varying concentrations of Tandyukisin (5, 10, 20 µM) or a control solution of 0.2% DMSO for 24 h. Following treatment, cells were harvested and washed with PBS to eliminate any residual drug, then an equal number of cells were allocated into 0.2 mL PCR tubes. These cells were resuspended in 100 µL PBS supplemented with a complete protease inhibitor cocktail and subjected to a heating step at […] for 3 min. Post-heating, the cells underwent lysis through three cycles of freeze-thaw using liquid nitrogen, followed by centrifugation at 12,000g for 20 min at 4°C to separate the lysate. The clarified supernatant from each tube was then carefully transferred to fresh tubes for Western blotting.
To confirm Tandyukisin directly bound EGFR in cells, CETSA was conducted. Currently, CETSA is widely used in drug target discovery assay and is based on the thermal stability changes after drugs bind to their targets ([Martinez Molina et al., 2013]; [Jafari et al., 2014]). After treatment with Tandyukisin at 5, 10, 20 μM for 24 h, the multiple aliquots of the cell suspension were heated at 55°C. The heated cells were subsequently lysed and centrifuged to separate soluble fractions from precipitated denatured EGFR. After thermal denaturation, EGFR in the soluble fraction was examined by Western blotting.

[2] = tested on: MCF-10A cells; test: MTT assay, MCF-10A; format: cell-based, human; conditions: MCF-10A (non-tumorigenic epithelial), 10 μM
Procedure: The cell lines MCF-7 and A431 were cultured in Dulbecco’s Modified Eagle’s Medium (DMEM, Gibco, USA), while HL-60, H1299, and A549 cells were maintained in RPMI-1640 medium (Gibco, USA). Both mediums were enriched with 10% fetal bovine serum and 1% penicillin/streptomycin. […] All cell cultures were incubated at 37°C in an atmosphere containing 5% CO2.
Cells in the exponential growth phase were seeded into 96-well plates and allowed to adhere overnight. Subsequently, they were treated in triplicate with various concentrations of the compounds (0, 1.56, 3.13, 6.25, 12.5, 25, 50, 100 µM), […]. After 24 h, 20 µL of Methyl-thiazolyldiphenyl-tetrazolium bromide (MTT, 5 mg/mL, Thermo Fisher Scientific) was added to each well and incubated for a minimum of 4 h. Following the incubation, the medium containing the compounds and MTT was removed from each well, and 200 µL of dimethyl sulfoxide (DMSO) was added. The plates were then shaken for 10 min at 37°C to dissolve the formazan crystals. The absorbance was measured using a microplate reader (BioTek Synergy 4) at a wavelength of 490 nm.

[3] = tested on: BAX; test: Western blotting of MCF-7 lysates, BAX; format: cell-based, human; conditions: for BAX WB Normalized: control 0 µM 0.795076455
Procedure: (§1) MCF-7 cell lysates were prepared by rinsing the cells twice with PBS and then solubilizing them in lysis buffer (NP40 supplemented with protease and phosphatase inhibitor cocktails) on ice. The solubilization process involved rotating the lysis buffer/cell mixture end over end for 10 min at 4°C. After centrifugation for 10 min at 4°C to remove insoluble material, the protein concentration of the solubilized protein was determined using a BCA assay. Subsequently, samples were diluted in SDS sample buffer. Equivalent amounts of protein were separated by SDS-PAGE, transferred to PVDF membranes, and probed with the indicated antibody. Prior to incubation with primary antibodies overnight at 4°C, the membranes were blocked with 5% skim milk-TBST. The antibodies and their sources were as follows: PARP1 (1:500, Santa Cruz Biotechnology), Cleaved Caspase-3 (1:1000, Cell Signaling Technology), BAX (1:500, Santa Cruz Biotechnology), BCL-2 (1:500, Santa Cruz Biotechnology), and GAPDH (1:500, Santa Cruz Biotechnology). Following incubation with horseradish peroxidase-conjugated goat anti-mouse or goat anti-rabbit secondary antibody (Santa Cruz Biotechnology), the detected proteins were visualized using the Pierce Enhanced Chemiluminescence (ECL) reagent and a UV Products imaging system. Band intensities were quantified using the National Institutes of Health ImageJ software.

[4] = molecular target: FGFR3 (Homo sapiens, UniProt P22607); test: Kinase profiling; format: biochemical; conditions: one of the other seven tyrosine kinases
Procedure: (§2) The experiments were conducted in accordance with the manufacturer’s guidelines (Promega). The procedure began with a kinase reaction, where 5 μL of 1× kinase buffer was utilized, and the mixture was incubated at room temperature for 60 min. This step was followed by the addition of 5 μL of ADP-Glo™ reagent to terminate the kinase reaction and to deplete any remaining ATP, with a subsequent incubation period of 40 min at room temperature. Next, 10 μL of kinase detection reagent was added to convert ADP back into ATP, and luciferase along with luciferin was introduced to facilitate ATP detection. This mixture was then incubated at room temperature for an additional 30 min. Detection was carried out using a BioTek Synergy4 instrument, and data analysis, including curve fitting and presentation, was performed using GraphPad Prism version 5.0.

[5] = molecular target: ABL (Homo sapiens, UniProt P00519); test: Kinase profiling; format: biochemical; conditions: one of the other seven tyrosine kinases
Procedure: as §2

[6] = molecular target: ECK (Homo sapiens, UniProt P29317); test: Kinase profiling; format: biochemical; conditions: one of the other seven tyrosine kinases
Procedure: as §2

[7] = molecular target: FGFR1 (Homo sapiens, UniProt P11362); test: Kinase profiling; format: biochemical; conditions: one of the other seven tyrosine kinases
Procedure: as §2

[8] = molecular target: FLT1 (Homo sapiens, UniProt P17948); test: Kinase profiling; format: biochemical; conditions: one of the other seven tyrosine kinases
Procedure: as §2

[9] = molecular target: FAK (Homo sapiens, UniProt Q05397); test: Kinase profiling; format: biochemical; conditions: one of the other seven tyrosine kinases
Procedure: as §2

[10] = molecular target: T2, EGFR kinase domain (Homo sapiens, UniProt P00533); test: Differential Scanning Fluorimetry (DSF); format: binding; conditions: 10 µM; 52.6°C at 0 µM
T2 construct: the intracellular tyrosine kinase (TK) domain of EGFR, tagged with GST; purchased Sinobiological, China
Procedure: In the Differential Scanning Fluorimetry (DSF) study, concentrations of Tandyukisin-1.3, 2.5, 5, and 10 µM-were incubated with 0.05 mg/mL of the EGFR kinase domain. A control sample, containing only 5% DMSO, was used alongside the EGFR kinase domain. The thermal stability of the EGFR kinase domain was assessed using PR NT.48 (NanoTemper). The assay conditions were set to a temperature range of 25°C–95°C with a ramp rate of 1 °C/min.

[11] = tested on: Cleaved Caspase-3; test: Western blotting of MCF-7 lysates, cleaved caspase-3; format: cell-based, human; conditions: for Cleaved Caspase-3 WB Normalized: control 0 µM 0.213235397
Procedure: as §1

T1 sequence (P00533 25-1210): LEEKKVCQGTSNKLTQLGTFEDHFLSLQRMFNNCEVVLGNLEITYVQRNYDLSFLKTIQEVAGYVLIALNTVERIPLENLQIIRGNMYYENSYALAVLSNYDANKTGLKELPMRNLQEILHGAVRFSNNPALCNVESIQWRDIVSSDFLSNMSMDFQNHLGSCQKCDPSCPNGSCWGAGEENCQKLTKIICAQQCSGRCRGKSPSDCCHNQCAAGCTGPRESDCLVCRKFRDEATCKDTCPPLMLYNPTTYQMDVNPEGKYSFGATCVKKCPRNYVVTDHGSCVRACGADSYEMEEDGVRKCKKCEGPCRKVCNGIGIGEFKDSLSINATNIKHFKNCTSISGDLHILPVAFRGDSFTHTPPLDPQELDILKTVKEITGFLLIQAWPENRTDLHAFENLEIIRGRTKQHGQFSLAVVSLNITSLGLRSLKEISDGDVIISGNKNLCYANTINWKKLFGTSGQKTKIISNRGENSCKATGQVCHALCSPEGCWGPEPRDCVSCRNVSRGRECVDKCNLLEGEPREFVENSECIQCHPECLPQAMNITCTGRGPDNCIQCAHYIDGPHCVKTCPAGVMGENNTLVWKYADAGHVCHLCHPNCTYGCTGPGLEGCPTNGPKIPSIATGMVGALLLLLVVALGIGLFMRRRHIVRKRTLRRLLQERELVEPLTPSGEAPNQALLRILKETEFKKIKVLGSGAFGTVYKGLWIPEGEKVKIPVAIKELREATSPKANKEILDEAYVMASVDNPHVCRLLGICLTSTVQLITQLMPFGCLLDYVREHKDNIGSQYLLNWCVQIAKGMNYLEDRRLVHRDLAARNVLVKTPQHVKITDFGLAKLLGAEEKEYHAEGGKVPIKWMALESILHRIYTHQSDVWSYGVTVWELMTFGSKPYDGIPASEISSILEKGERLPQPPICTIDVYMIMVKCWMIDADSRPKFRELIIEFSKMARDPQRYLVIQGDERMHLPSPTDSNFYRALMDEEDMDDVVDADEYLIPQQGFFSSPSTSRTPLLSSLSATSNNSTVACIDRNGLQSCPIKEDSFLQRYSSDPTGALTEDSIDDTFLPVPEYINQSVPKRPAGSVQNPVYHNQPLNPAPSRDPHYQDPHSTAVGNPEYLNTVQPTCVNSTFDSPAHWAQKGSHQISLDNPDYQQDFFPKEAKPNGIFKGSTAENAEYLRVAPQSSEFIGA
Sequence of ECK (P29317 24-976): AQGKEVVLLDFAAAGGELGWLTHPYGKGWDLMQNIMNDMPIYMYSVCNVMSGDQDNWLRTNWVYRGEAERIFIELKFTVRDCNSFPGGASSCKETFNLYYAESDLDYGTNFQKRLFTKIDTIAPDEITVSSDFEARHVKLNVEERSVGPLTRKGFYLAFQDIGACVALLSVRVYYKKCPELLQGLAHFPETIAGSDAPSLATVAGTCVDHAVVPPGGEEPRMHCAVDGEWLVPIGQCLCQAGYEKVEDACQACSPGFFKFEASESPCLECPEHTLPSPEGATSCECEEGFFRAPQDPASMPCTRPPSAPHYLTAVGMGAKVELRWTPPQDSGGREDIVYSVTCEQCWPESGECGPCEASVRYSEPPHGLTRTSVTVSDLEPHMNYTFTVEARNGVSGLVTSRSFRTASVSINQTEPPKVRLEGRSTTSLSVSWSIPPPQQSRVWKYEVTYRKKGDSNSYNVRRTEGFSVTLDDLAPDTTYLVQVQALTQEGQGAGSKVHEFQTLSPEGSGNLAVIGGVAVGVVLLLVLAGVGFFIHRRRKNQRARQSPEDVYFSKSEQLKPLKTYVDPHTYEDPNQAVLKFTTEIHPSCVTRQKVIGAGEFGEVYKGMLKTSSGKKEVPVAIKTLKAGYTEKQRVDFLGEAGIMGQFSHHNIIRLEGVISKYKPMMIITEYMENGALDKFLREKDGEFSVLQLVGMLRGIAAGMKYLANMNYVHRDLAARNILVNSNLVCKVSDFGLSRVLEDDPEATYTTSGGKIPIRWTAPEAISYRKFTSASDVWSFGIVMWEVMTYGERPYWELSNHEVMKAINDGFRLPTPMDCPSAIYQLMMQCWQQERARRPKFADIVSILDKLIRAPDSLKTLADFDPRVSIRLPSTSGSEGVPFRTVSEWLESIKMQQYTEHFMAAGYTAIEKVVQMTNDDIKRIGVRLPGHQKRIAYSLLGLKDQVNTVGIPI
Sequence of FAK (Q05397 whole entry): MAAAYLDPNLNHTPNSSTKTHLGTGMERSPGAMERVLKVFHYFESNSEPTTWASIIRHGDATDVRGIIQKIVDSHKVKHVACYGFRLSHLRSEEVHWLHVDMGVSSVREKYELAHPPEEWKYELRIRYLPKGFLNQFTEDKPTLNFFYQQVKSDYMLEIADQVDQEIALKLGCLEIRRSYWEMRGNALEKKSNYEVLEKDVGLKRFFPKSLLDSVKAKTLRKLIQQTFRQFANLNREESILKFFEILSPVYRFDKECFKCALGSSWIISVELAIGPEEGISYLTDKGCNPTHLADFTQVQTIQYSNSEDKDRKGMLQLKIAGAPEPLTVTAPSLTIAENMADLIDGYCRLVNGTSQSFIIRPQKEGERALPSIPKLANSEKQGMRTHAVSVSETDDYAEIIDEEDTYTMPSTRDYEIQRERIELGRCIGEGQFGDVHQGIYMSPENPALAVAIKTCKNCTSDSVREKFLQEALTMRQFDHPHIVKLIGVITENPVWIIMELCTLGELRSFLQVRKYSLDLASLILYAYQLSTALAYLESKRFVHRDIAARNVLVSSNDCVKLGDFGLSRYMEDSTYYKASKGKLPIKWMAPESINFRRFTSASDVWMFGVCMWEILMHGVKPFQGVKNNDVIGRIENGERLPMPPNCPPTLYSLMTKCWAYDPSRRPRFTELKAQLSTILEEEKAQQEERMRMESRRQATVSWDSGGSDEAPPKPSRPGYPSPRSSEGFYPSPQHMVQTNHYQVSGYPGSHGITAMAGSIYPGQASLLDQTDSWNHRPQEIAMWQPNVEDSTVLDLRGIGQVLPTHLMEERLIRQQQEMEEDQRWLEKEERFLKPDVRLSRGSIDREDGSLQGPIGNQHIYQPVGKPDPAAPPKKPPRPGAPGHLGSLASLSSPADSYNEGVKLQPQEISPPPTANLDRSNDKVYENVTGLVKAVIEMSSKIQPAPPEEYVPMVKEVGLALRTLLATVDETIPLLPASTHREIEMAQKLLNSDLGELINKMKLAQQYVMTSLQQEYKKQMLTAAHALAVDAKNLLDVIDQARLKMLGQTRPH
Sequence of ABL (P00519 whole entry): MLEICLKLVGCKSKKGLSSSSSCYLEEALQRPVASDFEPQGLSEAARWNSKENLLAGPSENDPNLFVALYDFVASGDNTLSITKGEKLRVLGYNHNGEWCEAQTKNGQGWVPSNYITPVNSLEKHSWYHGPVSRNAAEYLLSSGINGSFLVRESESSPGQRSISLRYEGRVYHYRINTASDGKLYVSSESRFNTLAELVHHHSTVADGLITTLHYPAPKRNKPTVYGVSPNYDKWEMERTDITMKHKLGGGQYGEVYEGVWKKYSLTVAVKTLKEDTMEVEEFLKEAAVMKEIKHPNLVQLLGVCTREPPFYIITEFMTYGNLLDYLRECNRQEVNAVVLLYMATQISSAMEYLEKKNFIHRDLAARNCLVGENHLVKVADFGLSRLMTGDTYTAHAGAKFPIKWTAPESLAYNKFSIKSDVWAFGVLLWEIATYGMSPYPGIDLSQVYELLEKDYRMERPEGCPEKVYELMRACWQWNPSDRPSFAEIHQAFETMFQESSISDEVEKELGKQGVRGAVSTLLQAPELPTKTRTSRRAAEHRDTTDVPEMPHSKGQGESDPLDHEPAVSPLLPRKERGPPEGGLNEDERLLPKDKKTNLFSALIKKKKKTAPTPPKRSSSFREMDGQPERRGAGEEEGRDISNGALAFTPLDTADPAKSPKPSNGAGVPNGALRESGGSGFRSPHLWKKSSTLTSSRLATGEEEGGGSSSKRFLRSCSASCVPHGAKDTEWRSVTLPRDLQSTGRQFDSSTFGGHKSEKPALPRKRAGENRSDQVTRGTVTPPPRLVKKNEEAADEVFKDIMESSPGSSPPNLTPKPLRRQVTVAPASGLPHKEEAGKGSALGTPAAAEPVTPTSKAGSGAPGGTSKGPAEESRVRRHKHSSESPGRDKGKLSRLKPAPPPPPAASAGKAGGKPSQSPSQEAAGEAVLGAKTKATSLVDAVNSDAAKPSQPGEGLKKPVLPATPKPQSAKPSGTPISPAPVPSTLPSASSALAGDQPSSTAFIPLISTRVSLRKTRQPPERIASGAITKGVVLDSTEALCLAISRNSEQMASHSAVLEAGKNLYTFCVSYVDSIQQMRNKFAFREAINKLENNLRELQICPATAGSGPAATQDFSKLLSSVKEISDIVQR
T2 sequence (P00533 712-979 limits assumed): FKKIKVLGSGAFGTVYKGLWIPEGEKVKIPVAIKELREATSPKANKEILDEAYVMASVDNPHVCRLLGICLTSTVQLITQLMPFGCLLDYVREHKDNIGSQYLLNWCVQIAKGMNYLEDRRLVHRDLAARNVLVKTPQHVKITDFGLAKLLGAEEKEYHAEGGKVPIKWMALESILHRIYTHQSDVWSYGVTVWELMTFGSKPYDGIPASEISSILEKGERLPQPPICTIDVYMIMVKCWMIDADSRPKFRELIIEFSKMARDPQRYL

COC(=O)C/C(C)=C/C(=O)O[C@@H]1C[C@@H](C)[C@H]2[C@@H](C=C[C@H](CC(C)C)[C@]2(C)C(=O)/C=C\O)[C@@H]1O [Tandyukisin]
CETSA WB Gray Value (Figure 3F) ([1]; 5 µM): 29078.924 | CETSA WB Normalized (Figure 3F) ([1]; 5 µM): 0.7019 | CETSA WB Gray Value (Figure 3F) ([1]; 10 µM): 31150.702 | CETSA WB Normalized (Figure 3F) ([1]; 10 µM): 0.8063 | CETSA WB Gray Value (Figure 3F) ([1]; 20 µM): 42106.53 | CETSA WB Normalized (Figure 3F) ([1]; 20 µM): 1.166 | accumulation of EGFR in the soluble fraction (CETSA) compared with DMSO control ([1]; MCF-7, 5, 10, 20 μM, 24 h, heated): markable increase | cell lethality percentage [2]: 8.9% ± 1.5% | BAX WB Gray Value ([3]; 5 µM): 19561.731 | BAX WB Normalized ([3]; 5 µM): 0.4461 | BAX WB Gray Value ([3]; 10 µM): 48768.744 | BAX WB Normalized ([3]; 10 µM): 1.12 | BAX WB Gray Value ([3]; 20 µM): 33049.489 | BAX WB Normalized ([3]; 20 µM): 0.9664 | IC50 [4]: > 100 µM | IC50 [5]: > 100 µM | IC50 [6]: > 100 µM | IC50 [7]: > 100 µM | IC50 [8]: > 100 µM | IC50 [9]: > 100 µM | melting temperature (Tm) of EGFR kinase domain [10]: 54.2 °C | Cleaved Caspase-3 WB Gray Value ([11]; 5 µM): 17172.004 | Cleaved Caspase-3 WB Normalized ([11]; 5 µM): 0.3916 | Cleaved Caspase-3 WB Gray Value ([11]; 10 µM): 22734.418 | Cleaved Caspase-3 WB Normalized ([11]; 10 µM): 0.5222 | Cleaved Caspase-3 WB Gray Value ([11]; 20 µM): 173083.238 | Cleaved Caspase-3 WB Normalized ([11]; 20 µM): 5.061 | expression level of cleaved caspase-3 protein ([11]; MCF-7, upon treatment): increased
